Experimental data as given in article PMC3215729, “Rv2607 from Mycobacterium tuberculosis Is a Pyridoxine 5′-Phosphate Oxidase with Unusual Substrate Specificity” (PLoS ONE, 2011).

Molecular target: T1, Rv2607 (PNPOx) (Mycobacterium tuberculosis, UniProt P9WIJ1)
T1 construct: gene pdxH
T1 sequence (P9WIJ1 whole entry): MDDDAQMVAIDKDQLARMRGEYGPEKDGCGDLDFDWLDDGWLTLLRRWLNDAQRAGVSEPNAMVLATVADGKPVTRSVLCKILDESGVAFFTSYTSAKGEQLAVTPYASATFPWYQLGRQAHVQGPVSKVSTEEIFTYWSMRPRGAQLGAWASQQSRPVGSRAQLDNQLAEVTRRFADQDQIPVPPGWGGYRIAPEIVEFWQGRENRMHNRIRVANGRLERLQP

Cc1cc2nc3c(=O)[nH]c(=O)nc-3n(C[C@H](O)[C@H](O)[C@H](O)COP(=O)(O)O)c2cc1C [FMN]
native nESI-MS of intact complex; ESI-MS identification of extracted cofactor: The yellow cofactor bound tightly to Rv2607 as purified and was unambiguously identified as FMN
